Publication PMC4326127, “Collagen Inhibitory Peptide R1R2 Mediates Vascular Remodeling by Decreasing Inflammation and Smooth Muscle Cell Activation” (PLoS ONE, 2015)

Columns and labels:
[1] = system: left common carotid artery (flow-induced vascular remodeling); assay: Morphometric analysis of carotid artery after complete common carotid ligation; type: in vivo, FVB/NJ (FVB) mice; settings: for EEL Area / Intima+Media / Intima/Media Ratio / Lumen: 20 μM peptide in 50 μl F-127 pluronic gel, mean ± SEM
Excerpt: (§1) Animals were anesthetized with isoflurane inhalation. The left common carotid artery was exposed, dissected free from the surrounding connective tissue and completely ligated with 6-0 silk suture just proximal to the carotid bifurcation. […] 4–10 mice were included in each experimental group.
5 groups of animals were processed for morphometric analysis. Mice were fixed with 10% formalin 7 or 14 days after the surgery. The common carotid arteries were harvested and embedded in paraffin.
For in vivo experiments, the data are shown as the mean ± SEM. For in vitro experiments, the data shown are the means ± SD of a representative experiment, at least 3 independent experiments were performed. One-way ANOVA with post-hoc testing were used for data analysis with GraphPad Prism software (GraphPad, San Diego, CA). If normality test failed, nonparametric Kruskal-Wallis test followed by Dunn's post-hoc test were used. P > 0.05 was not considered significant.

[2] = system: collagen type I; assay: IHC for collagen type I in ligated carotid artery; type: in vivo, FVB/NJ (FVB) mice; settings: 7 days after surgery; 20 μM peptide in pluronic gel; mean ± SEM; R1R2 n = 6, scrambled n = 6
Procedure: as §1
(§2) Paraffin sections selected from the first mm of the carotid artery in each group were used for immunohistochemistry (IHC). […] Sections were then incubated with appropriate biotinylated secondary antibodies followed by avidin-biotin immunoperoxidase system (Vector Laboratories, Burlingame, CA). Liquid DAB Substrate Chromogen system (Dako, Carpinteria, CA) was used for detection.
(§3) Quantitative IHC analysis was performed on digital images captured with a 20x objective by using Image-Pro Plus software. Data from 3–6 mice for each group were averaged, and the average values ± SEM were shown. For FN, collagen type I, SM-MHC and SM α-actin, color digital images were transformed into gray scale, and the sum of the optical densities from the intima+media area in each section was determined. […] The percent of positive cells is reported as the proliferation index. […] The intima+media region was traced manually. The percent of positively stained area in intima+media to the total traced area was assessed.
(§4) For in vivo experiments, the data are shown as the mean ± SEM. […]

[3] = system: smooth muscle α-actin (SMAA); assay: IHC for smooth muscle α-actin in ligated carotid artery; type: in vivo, FVB/NJ (FVB) mice; settings: 7 days post-ligation; mean ± SEM; scrambled n = 6, R1R2 n = 5 (sham 0.232 ± 0.011, n = 5)
Procedure: as §1, §2, §3, §4

[4] = system: VCAM-1; assay: VCAM-1 IHC in ligated carotid artery; type: in vivo, FVB/NJ (FVB) mice; settings: 7 days after ligation; percent of positively stained area; mean ± SEM; R1R2 n = 7, control peptide n = 9
Procedure: as §1, §2, §3, §4

[5] = system: ICAM-1; assay: ICAM-1 IHC in ligated carotid artery; type: in vivo, FVB/NJ (FVB) mice; settings: 7 days after ligation; percent of positively stained area; mean ± SEM; R1R2 n = 7, control peptide n = 8
Procedure: as §1, §2, §3, §4

[6] = system: VCAM-1; assay: Western blot of VCAM-1 in TNF-α-treated HUVECs; type: cell-based, human; settings: in words
Procedure: (§5) Human umbilical vein endothelial cells (HUVECs) and A7r5 SMCs were provided by Resource Center (SB3, NSC 100-2325-B-080-001), National Research Program for Biopharmaceuticals (Hsinchu, Taiwan). HUVECs were maintained in M199 (Life Technologies, Carlsbad, CA) with 25U/ml heparin (Sigma-Aldrich, St. Louis, MO), 10% fetal bovine serum (FBS) and endothelial cell growth supplement (ECGS; Millipore, Billerica, MA). A7r5 SMCs were grown in Dulbecco’s Modified Eagle’s Medium (DMEM) containing high glucose, supplemented with 10% fetal bovine serum. Human U937 cells were grown in RPMI1640 with 10% FBS.
Tissues or cells were homogenized with RIPA buffer supplemented with protease inhibitor cocktail (Sigma-Aldrich, St. Louis, MO). Cell lysates were spun at 12,000 rpm for 15 min at 4°C, then electrophoresed on 10% SDS-PAGE gel and transferred to nitrocellulose. […]
Fig 8 R1R2 decreases TNF-α-induced monocyte U937 cell adhesion to HUVECs and transendothelial migration and reduces ICAM-1 and VCAM-1 levels. […] Calcein-AM labeled U937 monocyte adhesion to TNF-α HUVECs was quantitated by fluorescence intensity. Microscopic images showing U937 monocytes adhering to HUVECs as assessed by in vitro adhesion assay. […]

[7] = system: HUVECs; assay: HUVEC proliferation assay; type: cell-based, human; settings: at the start of the adhesion assay, versus control peptide; data not shown; in words
Procedure: as §5
A7r5 cells and HUVECs were growth-arrested and then stimulated with 10% FBS or 10 ng/ml TNF-αovernight after serum starvation as indicated in the figure legend. Briefly, trypan blue-excluding cells were counted with a hemocytometer, and data were analyzed using GraphPad Prism Software (San Diego, CA) as in previous studies. A second observer performed a similar analysis to verify the initial findings.

[8] = 7 day after ligation, periadventitial, scrambled n = 4, R1R2 n = 10
[9] = 14 day after ligation, periadventitial, scrambled n = 4, R1R2 n = 9

Sequence: GLNGENQKEPEQGERGEAGPPLSGLSGNNQGRPSLPGLNGENQKEPEQGERGEAGPP [R1R2]
- effect on neointimal formation ([1]; 7 and 14 days post-ligation, 20 μM peptide in pluronic gel, periadventitial, in words): dramatic attenuation in injury-induced neointimal formation
- EEL Area [1, 8]: 64905 ± 3680 (n = 10) μm^2
- Intima+Media [1, 8]: 29208 ± 884 (n = 10) μm^2
- Intima/Media Ratio [1, 8]: 0.0424 ± 0.0133 (n = 10)
- Lumen [1, 8]: 32038 ± 2870 (n = 10) μm^2
- effect on intima-media area, EEL area and intimal/medial ratio ([1]; 7 days and 14 days after ligation, compared to the control mice, in words): significantly reduced intima-media areas (Intima + Media), EEL area and intimal/medial ratios
- EEL Area [1, 9]: 51482 ± 4981 (n = 9) μm^2
- Intima+Media [1, 9]: 25706 ± 1220 (n = 9) μm^2
- Intima/Media Ratio [1, 9]: 0.0709 ± 0.0231 (n = 9)
- Lumen [1, 9]: 25776 ± 4286 (n = 9) μm^2
- effect on lumenal area ([1]; day 7 and 14 after injury, compared to the controls, in words): no significant decrease in the lumenal area
- collagen type I IHC intensity in intima-media area [2]: 0.117 ± 0.007
- SMAA IHC staining in intima-media area [3]: 0.214 ± 0.004
- VCAM-1 (+) area in intima-media [4]: 10.36 ± 1.802%
- ICAM-1 (+) area in intima-media [5]: 11.58 ± 2.387%
- VCAM-1 expression on HUVECs [6]: significantly decreased
- effect on HUVEC cell number [7]: No significant decrease
